Converted amounts (≈) assume the structure as drawn. The source made the active and inactive calls. No cut-off for these calls is given here.

The values below come from ChEMBL document CHEMBL4376816, “Discovery of the Oral Leukotriene C4 Synthase Inhibitor (1S,2S)-2-({5-[(5-Chloro-2,4-difluorophenyl)(2-fluoro-2-methylpropyl)amino]-3-methoxypyrazin-2-yl}carbonyl)cyclopropanecarboxylic Acid (AZD9898) as a New Treatment for Asthma” (J Med Chem, 2019).

Data set [1] can be described thus: Clearance in Beagle dog at 1 mg/kg, iv infusion or 2 mg/kg, po via gavage after 48 hrs. It counts as ADME, organism-based, Canis lupus familiaris. The conditions noted are these: in vivo.
Data set [2] can be described thus: Oral bioavailability in Beagle dog at 2 mg/kg via gavage after 48 hrs. Type of data set: ADME, organism-based, Canis lupus familiaris. The conditions noted are these: in vivo.
The nature of data set [3]: Toxicity in rat assessed as liver hypertrophy at 300 mg/kg, po after 7 days. It counts as organism-based. The conditions noted are these: in vivo.
Data set [4] is described as follows: AUC in po dosed rat at LOAEL measured after 7 days. Type of data set: ADME, organism-based. The conditions noted are these: in vivo.
A short description of data set [5]: Volume of distribution at steady state in Han Wistar rat at 0.5 mg/kg, iv or 1 mg/kg, po after 24 hrs. It counts as ADME, organism-based. The conditions noted are these: in vivo, read-out: Vdss.
The nature of data set [6]: Toxicity in rat assessed as unilateral sperm granuloma at 300 mg/kg, po after 7 days. Type of data set: organism-based. The conditions noted are these: in vivo.
Data set [7] in a line: Intrinsic clearance in human hepatocytes at 1 uM assessed as per million cells after 2 to 60 mins by LC-MS/MS analysis. Type of data set: ADME, cell-based, Hepatocyte. The conditions noted are these: read-out: CLH.
The nature of data set [8]: Effective half life in Beagle dog at 1 mg/kg, iv infusion or 2 mg/kg, po via gavage after 48 hrs. It counts as ADME, organism-based, Canis lupus familiaris. The conditions noted are these: in vivo, read-out: t1/2eff (converted).
Data set [9] can be described thus: Fraction unbound in Sprague-Dawley rat plasma by equilibrium dialysis based LC-MS analysis. It counts as ADME, cell-free. (In general: In equilibrium dialysis only unbound substance equilibrates across the membrane.)
A further data set concerns the target Cytochrome P450 2C19 (Homo sapiens, UniProt P33261). As to the kind of experiment: Inhibition of recombinant human CYP2C19 using coumarin based substrate by fluorescence assay. It counts as ADME.
Data set [10] deals with Voltage-gated inwardly rectifying potassium channel KCNH2 (Homo sapiens, UniProt Q12809). As to the kind of experiment: Inhibition of human ERG by electrophysiology based assay.
Sequence of Voltage-gated inwardly rectifying potassium channel KCNH2 (Q12809 whole entry): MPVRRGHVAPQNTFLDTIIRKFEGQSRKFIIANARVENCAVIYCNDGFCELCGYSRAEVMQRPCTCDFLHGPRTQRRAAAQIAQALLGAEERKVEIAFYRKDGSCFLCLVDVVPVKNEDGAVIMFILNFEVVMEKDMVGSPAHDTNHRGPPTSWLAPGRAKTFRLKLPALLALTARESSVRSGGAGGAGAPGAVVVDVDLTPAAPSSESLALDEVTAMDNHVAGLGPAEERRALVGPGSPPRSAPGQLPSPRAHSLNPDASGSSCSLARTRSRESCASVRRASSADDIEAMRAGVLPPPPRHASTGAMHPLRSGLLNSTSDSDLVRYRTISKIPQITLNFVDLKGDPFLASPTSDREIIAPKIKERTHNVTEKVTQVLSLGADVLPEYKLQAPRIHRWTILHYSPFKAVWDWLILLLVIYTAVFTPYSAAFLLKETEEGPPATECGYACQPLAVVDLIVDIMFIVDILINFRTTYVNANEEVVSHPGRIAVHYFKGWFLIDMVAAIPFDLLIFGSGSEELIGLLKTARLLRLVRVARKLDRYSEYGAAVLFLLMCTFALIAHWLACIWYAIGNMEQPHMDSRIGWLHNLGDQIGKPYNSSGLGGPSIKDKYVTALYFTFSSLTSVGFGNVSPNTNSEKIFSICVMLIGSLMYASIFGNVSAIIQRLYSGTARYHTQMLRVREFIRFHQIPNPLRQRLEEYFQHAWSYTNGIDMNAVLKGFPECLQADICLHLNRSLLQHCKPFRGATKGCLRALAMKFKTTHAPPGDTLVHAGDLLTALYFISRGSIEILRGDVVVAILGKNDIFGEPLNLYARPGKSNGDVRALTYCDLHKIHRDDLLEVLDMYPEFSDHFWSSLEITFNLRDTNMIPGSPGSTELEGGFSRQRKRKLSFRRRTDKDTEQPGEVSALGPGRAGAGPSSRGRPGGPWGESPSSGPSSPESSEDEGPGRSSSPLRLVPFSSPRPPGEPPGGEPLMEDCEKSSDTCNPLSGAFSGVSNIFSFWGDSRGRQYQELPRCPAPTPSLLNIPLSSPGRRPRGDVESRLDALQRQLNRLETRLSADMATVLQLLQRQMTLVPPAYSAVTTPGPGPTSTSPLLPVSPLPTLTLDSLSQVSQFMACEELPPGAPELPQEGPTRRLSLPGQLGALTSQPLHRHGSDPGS
Data set [11] is described as follows: Clearance in Han Wistar rat at 0.5 mg/kg, iv or 1 mg/kg, po after 24 hrs. It counts as ADME, organism-based. The conditions noted are these: in vivo.
The target of data set [12] is T1, Solute carrier organic anion transporter family member 1B1 (Homo sapiens, UniProt Q9Y6L6).
T1 sequence (Q9Y6L6 whole entry): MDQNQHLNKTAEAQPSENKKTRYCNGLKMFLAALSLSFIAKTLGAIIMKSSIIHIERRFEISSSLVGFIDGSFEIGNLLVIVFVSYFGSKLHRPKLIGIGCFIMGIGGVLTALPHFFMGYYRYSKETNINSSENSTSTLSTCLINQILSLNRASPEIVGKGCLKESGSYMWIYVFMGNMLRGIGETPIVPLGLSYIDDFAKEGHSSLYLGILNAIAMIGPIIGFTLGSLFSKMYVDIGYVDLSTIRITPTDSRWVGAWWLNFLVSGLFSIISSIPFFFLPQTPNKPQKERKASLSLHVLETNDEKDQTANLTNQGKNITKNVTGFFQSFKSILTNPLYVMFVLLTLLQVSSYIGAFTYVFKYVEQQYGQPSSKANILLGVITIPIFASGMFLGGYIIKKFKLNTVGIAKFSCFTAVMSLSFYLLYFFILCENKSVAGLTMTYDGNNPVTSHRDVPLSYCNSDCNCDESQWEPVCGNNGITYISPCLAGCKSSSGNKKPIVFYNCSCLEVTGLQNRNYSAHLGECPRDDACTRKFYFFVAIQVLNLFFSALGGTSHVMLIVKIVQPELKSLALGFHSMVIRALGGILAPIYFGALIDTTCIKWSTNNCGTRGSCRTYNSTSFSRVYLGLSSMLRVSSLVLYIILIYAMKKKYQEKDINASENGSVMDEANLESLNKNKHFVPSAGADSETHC
Nature of the data set: Inhibition of OATP1B1 (unknown origin) expressed in HEK293 cells measured after 0.5 to 20 mins by scintillation counting analysis. Type of data set: ADME, cell-based.

The nature of data set [13]: Displacement of [3H]-GABA/[3]-muscimol from GABA gated chloride channel in Sprague-Dawley rat cortical synoptic membranes by liquid scintillation analysis.
The nature of data set [14]: Effective half life in Han Wistar rat at 0.5 mg/kg, iv or 1 mg/kg, po after 24 hrs. It counts as ADME, organism-based. The conditions noted are these: in vivo, read-out: t1/2eff (converted).
Data set [15] in a line: AUC in po dosed rat at NOAEL measured after 7 days. Type of data set: ADME, organism-based. The conditions noted are these: in vivo.
The next data set relates to Rattus norvegicus. As to the kind of experiment: In vivo inhibition of LTC4S in po dosed Sprague-Dawley rat assessed as unbound drug concentration required for inhibition of calcium ionophore A23187-induced cysteinyl leukotrienes production in BAL fluid by LC-MS/MS analysis. Type of data set: functional.
Data set [16] can be described thus: Toxicity in rat assessed as sperm granuloma at 300 mg/kg, po after 7 days. The conditions noted are these: in vivo. It counts as organism-based.
Data set [17] is described as follows: Cmax in po dosed rat at LOAEL measured after 7 days. Type of data set: ADME, organism-based. Set-up: route oral. The conditions noted are these: in vivo.
A further data set deals with Cytochrome P450 2C9 (Homo sapiens, UniProt P11712). As to the kind of experiment: Inhibition of recombinant human CYP2C9 expressed in Escherichia coli using coumarin based substrate by fluorescence assay. Type of data set: ADME.
Sequence of Cytochrome P450 2C9 (P11712 whole entry): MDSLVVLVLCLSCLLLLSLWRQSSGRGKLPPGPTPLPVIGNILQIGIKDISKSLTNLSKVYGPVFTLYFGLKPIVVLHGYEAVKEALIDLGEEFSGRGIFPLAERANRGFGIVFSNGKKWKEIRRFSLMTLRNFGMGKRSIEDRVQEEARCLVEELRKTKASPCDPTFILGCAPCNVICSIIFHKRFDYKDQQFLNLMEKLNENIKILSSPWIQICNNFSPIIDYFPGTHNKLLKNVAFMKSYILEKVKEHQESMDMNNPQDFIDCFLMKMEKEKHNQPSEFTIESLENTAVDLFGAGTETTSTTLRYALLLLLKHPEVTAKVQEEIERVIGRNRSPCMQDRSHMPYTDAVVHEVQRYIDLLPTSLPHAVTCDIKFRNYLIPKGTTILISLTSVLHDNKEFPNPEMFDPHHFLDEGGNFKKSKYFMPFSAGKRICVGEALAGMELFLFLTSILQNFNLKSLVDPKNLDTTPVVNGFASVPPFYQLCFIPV
Data set [18] is described as follows: Oral bioavailability in Han Wistar rat at 1 mg/kg after 24 hrs. Type of data set: ADME, organism-based. The conditions noted are these: in vivo.
A short description of data set [19]: Cmax in po dosed rat at NOAEL measured after 7 days. Type of data set: ADME, organism-based. Set-up: route oral. The conditions noted are these: in vivo.
A short description of data set [20]: Apparent permeability across apical to basolateral side in human Caco2 cells. The conditions noted are these: Caco-2.
The target in a further data set is T2, Cytochrome P450 1A2 (Homo sapiens, UniProt P05177).
T2 sequence (P05177 whole entry): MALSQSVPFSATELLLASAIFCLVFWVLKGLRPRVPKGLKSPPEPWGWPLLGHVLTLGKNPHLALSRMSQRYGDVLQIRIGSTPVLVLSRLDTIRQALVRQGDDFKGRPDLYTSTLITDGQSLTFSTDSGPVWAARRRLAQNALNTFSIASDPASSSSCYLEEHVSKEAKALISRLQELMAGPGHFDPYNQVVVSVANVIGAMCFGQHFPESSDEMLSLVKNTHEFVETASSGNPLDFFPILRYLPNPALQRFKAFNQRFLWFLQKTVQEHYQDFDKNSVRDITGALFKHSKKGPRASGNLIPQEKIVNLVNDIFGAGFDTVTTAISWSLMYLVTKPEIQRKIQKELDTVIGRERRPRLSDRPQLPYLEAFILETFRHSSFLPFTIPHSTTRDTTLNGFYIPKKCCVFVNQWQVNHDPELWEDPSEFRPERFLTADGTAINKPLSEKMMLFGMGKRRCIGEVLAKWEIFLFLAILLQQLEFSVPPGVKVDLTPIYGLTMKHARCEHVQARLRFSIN
As to the kind of experiment: Inhibition of recombinant human CYP1A2 using coumarin based substrate by fluorescence assay. It counts as ADME.

The nature of data set [21]: Fraction unbound in Beagle dog plasma by equilibrium dialysis based LC-MS analysis. It counts as ADME, cell-free, Canis lupus familiaris.
A short description of data set [22]: Octanol/Sodium phosphate buffer partition coefficient, log D of compound at pH 7.4 at 1 mg incubated for overnight under shaking condition by LC-MS/MS analysis. Type of data set: physicochemical.
The next data set deals with Cytochrome P450 2D6 (Homo sapiens, UniProt P10635). As to the kind of experiment: Inhibition of recombinant human CYP2D6 using coumarin based substrate by fluorescence assay. It counts as ADME.
Sequence of Cytochrome P450 2D6 (P10635 whole entry): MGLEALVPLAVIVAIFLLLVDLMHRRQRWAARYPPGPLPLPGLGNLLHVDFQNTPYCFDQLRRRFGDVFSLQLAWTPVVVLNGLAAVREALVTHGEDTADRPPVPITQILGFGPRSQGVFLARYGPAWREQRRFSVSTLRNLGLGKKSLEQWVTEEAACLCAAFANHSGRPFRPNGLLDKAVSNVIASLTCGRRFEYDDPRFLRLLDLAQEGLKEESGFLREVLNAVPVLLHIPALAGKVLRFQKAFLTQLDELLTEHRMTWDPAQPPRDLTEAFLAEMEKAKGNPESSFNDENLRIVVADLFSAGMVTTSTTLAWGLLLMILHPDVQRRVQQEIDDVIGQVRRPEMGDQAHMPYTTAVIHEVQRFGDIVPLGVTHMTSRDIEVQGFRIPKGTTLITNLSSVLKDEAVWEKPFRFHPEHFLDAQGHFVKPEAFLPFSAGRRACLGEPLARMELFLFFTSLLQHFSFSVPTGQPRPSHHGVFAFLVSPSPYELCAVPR
Data set [23] is described as follows: Thermodynamic solubility of compound in pH 7.4 PBS at 1 mg/ml incubated for 24 hrs under shaking condition by LC-MS/MS analysis. It counts as physicochemical. The conditions noted are these: read-out: Therm_solubility.
The next data set addresses Cytochrome P450 3A4 (Homo sapiens, UniProt P08684). Nature of the data set: Inhibition of recombinant human CYP3A4 expressed in Escherichia coli using coumarin based substrate by fluorescence assay. It counts as ADME.
The nature of data set [24]: Volume of distribution at steady state in Beagle dog at 1 mg/kg, iv infusion or 2 mg/kg, po via gavage after 48 hrs. Type of data set: ADME, organism-based, Canis lupus familiaris. The conditions noted are these: in vivo, read-out: Vdss.
A short description of data set [25]: Toxicity in rat assessed as bilirubinemia at 300 mg/kg, po after 7 days. It counts as organism-based. The conditions noted are these: in vivo.
Data set [26] is described as follows: Fraction unbound in human plasma by equilibrium dialysis based LC-MS analysis. It counts as ADME, cell-free.
For the next data set, the target named is T3, Leukotriene C4 synthase (Homo sapiens, UniProt Q16873).
T3 sequence (Q16873 whole entry): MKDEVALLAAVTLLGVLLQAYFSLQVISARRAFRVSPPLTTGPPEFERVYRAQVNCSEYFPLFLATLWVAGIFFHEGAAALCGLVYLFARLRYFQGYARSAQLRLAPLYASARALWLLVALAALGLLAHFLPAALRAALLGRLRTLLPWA

The target of data set [27] is T4, Leukotriene C4 synthase (Homo sapiens) (UniProt Q16873).
T4 sequence (whole entry): T3 sequence (Q16873 whole entry)
As to the kind of experiment: Inhibition of LTC4S in healthy human whole blood assessed as inhibition of calcium ionophore A23187 stimulated cysteinyl leukotrienes production preincuabted for 30 mins followed by calcium ionophore stimulation and measured after 10 mins by LC-MS analysis. Type of data set: tissue-based.

For data set [28], the target named is T4, Leukotriene C4 synthase (Homo sapiens). Nature of the data set: Inhibition of LTC4S in asthmatic human whole blood assessed as inhibition of calcium ionophore A23187 stimulated cysteinyl leukotrienes production preincuabted for 30 mins followed by calcium ionophore stimulation and measured after 10 mins by LC-MS analysis. Type of data set: tissue-based.

Sequence of Cytochrome P450 3A4 (P08684 whole entry, the tested form may be a part): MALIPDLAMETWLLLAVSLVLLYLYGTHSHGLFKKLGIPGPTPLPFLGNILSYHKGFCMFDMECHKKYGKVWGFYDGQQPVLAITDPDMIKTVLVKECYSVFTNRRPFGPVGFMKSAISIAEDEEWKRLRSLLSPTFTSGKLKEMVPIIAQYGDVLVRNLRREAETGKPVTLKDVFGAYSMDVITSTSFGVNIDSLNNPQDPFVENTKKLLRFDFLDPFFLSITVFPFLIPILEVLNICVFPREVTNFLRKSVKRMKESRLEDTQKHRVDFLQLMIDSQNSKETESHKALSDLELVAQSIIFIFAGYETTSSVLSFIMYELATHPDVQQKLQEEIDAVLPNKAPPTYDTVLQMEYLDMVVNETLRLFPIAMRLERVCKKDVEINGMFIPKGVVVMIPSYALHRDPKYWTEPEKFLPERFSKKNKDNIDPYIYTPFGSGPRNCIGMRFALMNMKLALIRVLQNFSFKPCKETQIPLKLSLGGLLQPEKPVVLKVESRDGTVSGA
Sequence of Cytochrome P450 2C19 (P33261 whole entry): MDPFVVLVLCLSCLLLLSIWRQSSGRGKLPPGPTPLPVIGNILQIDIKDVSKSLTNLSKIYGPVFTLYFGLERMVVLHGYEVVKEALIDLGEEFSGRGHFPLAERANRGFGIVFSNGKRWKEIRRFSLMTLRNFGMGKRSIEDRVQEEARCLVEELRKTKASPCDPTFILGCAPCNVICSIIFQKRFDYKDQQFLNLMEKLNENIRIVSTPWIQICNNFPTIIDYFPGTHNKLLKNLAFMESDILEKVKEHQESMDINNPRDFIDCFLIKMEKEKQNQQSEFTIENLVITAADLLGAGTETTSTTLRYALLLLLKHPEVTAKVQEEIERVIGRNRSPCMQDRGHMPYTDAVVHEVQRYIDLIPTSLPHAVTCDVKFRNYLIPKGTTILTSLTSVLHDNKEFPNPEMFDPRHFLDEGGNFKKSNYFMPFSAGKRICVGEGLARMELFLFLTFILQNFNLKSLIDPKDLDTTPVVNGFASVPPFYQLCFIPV

With `COc1cc(N(CC2CC2)c2ccc(Cl)c3ccccc23)cnc1C(=O)[C@H]1C[C@@H]1C(=O)O`, the clearance in data set [1] is 2.4 mL/min/kg; in [11] it was 12 mL/min/kg. Further, the figures for the bioavailability in data set [2] and in data set [18] were 91% and 46%, respectively. Further, the Activity result in data set [3], in [6], in data set [16] and in data set [25] was “Toxic” in each case. Also, the values for the AUC in data set [4] and in data set [15] were 1830 µM·h and 200 µM·h, respectively. In addition, the figures for the Vd in data set [5] and in data set [24] were 2.8 L/kg and 1.1 L/kg, respectively. In addition, the hepatocyte CLint at 1 µM in data set [7] is 5 µL/min/1e6 cells. Moreover, the half-life is 4.8 h in data set [8] and 2.7 h in data set [14]. The fraction unbound in [9] is 0.0062; in [21] it was 0.0021; in [26], 0.0066. The IC50 is greater than 20 µM on Cytochrome P450 2C19; 0.074 µM in data set [13]; greater than 20 µM at Cytochrome P450 2C9; greater than 20 µM on Cytochrome P450 1A2; greater than 20 µM on Cytochrome P450 2D6; greater than 20 µM on Cytochrome P450 3A4. In data set [10], the “inhibition (INH)” value is given as “Not Active”. In data set [12], this compound returned an INH of 0.6 µM. Besides, in the data set with Rattus norvegicus, the fEC50 is reported as 7.5 nM. Moreover, the Cmax at […] in data set [17] amounted to 144 µM; in data set [19], 47 µM. Also, the Papp A→B in data set [20] is 105 ×10⁻⁶ cm/s. This compound also registered a logD in [22] of 2.4. In addition, the solubility thermodynamic at 24 h in [23] was 576 µM (≈ 260 µg/mL).
`CC(C)(O)c1ccccc1CC[C@@H](SCC1(CC(=O)O)CC1)c1cccc(/C=C/c2ccc3ccc(Cl)cc3n2)c1` [MONTELUKAST]: the half-maximal inhibitory concentration (IC50) on Leukotriene C4 synthase is less than 5 µM. Besides, the inhibition result in [27] and in data set [28] was “Active” in each case.

As a reminder, the bioavailability is dose-corrected exposure relative to a reference, in per cent. Usually AUC stands for the area under the concentration-time curve, a measure of exposure. Usually fraction unbound stands for the share of the substance not bound to proteins or other matrix. Higher therefore signals weak binding. One may read the IC50 as the concentration that gives 50% inhibition. As usually defined, the Cmax is the highest concentration seen after dosing. Usually Papp A→B stands for the apparent permeability from the apical to the basolateral side of a cell layer. A word on the logD: it is lipophilicity at a set pH, counting ionised and neutral species. Read a low logD as a more hydrophilic compound.
